# From the OPERA property sets (Mansouri et al. 2018)
# Details: not given
SMILES,boiling point [°C],melting point [°C],log10 Henry constant (atm·m³/mol),log10 Koc (L/kg),log10 vapour pressure (mmHg),ready biodegradability,log10 Koa,log10 biodegradation half-life (days)
CC(C)COC(=O)OCC(C)C,190,,,,,,,
CC(C)(C(=O)c1cccnc1)c1cccnc1,,50.5,,,,,,
CCC(Br)C(=O)OC (stereo not given),168,,,,,,,
CC(C)CC1CCCC1,148,-115,,,,,,
CCS(=O)CC,,14,,,,,,
NC(=O)OCC(Cl)(Cl)Cl,,64,,,,,,
CCCCNC(=O)NS(=O)(=O)c1ccc(C)cc1,,128,,,,,,
Cc1ccc(I)cc1,211,36.5,,,,,,
CCN(CC)CN(CC)CC,166,,,,,,,
CCCCCCCCCCCCCC(C)=O,294,39.5,,,,,,
O=C(O)C(Cl)(Cl)Cl,196,57.5,-7.87,0.3,-1.22,not readily biodegradable,,
Cc1ccccc1CC#N,244,,,,,,,
CC(C)CCCCCCOC(=O)c1ccccc1C(=O)OCCCCCCC(C)C,,,,,,readily biodegradable,,
Cc1cccc(C(C)C)c1O,226,-14.5,,,,,,
CC(=O)NCCSC(C)=O,,32.5,,,,,,
Clc1cc(Cl)cc(Cl)c1,208,63.5,-2.72,2.85,-0.62,not readily biodegradable,4.85,
CC(C)COCC(C)C,123,,,,1.19,,3.4,
ClC1=C(Cl)[C@]2(Cl)[C@H]3[C@H]([C@@H]4C=C[C@H]3C4)[C@@]1(Cl)C2(Cl)Cl (racemic),,,-4.36,4.69,-3.92,,8.08,
c1ccc(C(c2ccccc2)(c2ccccc2)N2CCOCC2)cc1,,175,,,,,,
CCNS(=O)(=O)C(F)(F)C(F)(F)C(F)(F)C(F)(F)C(F)(F)C(F)(F)C(F)(F)C(F)(F)F,196,96,,,-6.37,,,
COC(=O)c1cccc2ccccc12,,59.5,,,,,,
O=C(O)C=Cc1ccc(Cl)cc1,,249,,,,,,
O=[N+]([O-])c1cccc(S(=O)(=O)NCCNS(=O)(=O)c2cccc([N+](=O)[O-])c2)c1,,190,,,,,,
C=C(CC(=O)OC)C(=O)OC,208,38,,,,,,
Cc1cccc(C)c1I,230,11.2,,,,,,

SMILES,boiling point [°C],melting point [°C],log10 Henry constant (atm·m³/mol),log10 Koc (L/kg),log10 vapour pressure (mmHg),ready biodegradability,log10 Koa,log10 biodegradation half-life (days)
C=C1CCC1=C,64,,,,,,,
CCCCCC(=O)OCC,167,-67,,2.06,,,,
Cc1ccnc(-c2cc(C)ccn2)c1,,175,,,,,,
N#CC1CC1,135,,,,,,,
Cc1ccc(C(=O)O)c([N+](=O)[O-])c1O,,186,,,,,,
Cc1c(O)cccc1O,264,120,,,,not readily biodegradable,,
CC(C)(C)C(O)C(Oc1ccc(Cl)cc1)n1cncn1 (stereo not given),,124,,2.7,-9.51,,,
C=CBr,15.8,-138,,,3.01,,,
COC(=O)[C@@H]1CCCN1C(=O)COC(=O)c1ccccc1,,72.5,,,,,,
Brc1cccc(Br)c1Oc1ccccc1,,,,,,,8.12,
O=[N+]([O-])c1ccco1,,30,,,,,,
Brc1ccccc1,156,-30.6,-2.61,2.49,0.621,not readily biodegradable,,
CCCCC1(CC)C(=O)NC(=O)NC1=O,,128,,,,,,
CCc1ccc(CC)cc1,184,-42.8,,,0.0253,not readily biodegradable,,
Nc1ccc(C2(c3ccc(N)cc3)OC(=O)c3ccccc32)cc1,,203,,,,,,
Oc1ccc2ccccc2c1Br,,84,,,,,,
CC(C)O,82.3,-89.5,-5.09,,1.66,readily biodegradable,,
C=CC,-48,-185,-0.708,,3.94,,,
COC(=O)C(F)(F)C(F)(F)C(F)(F)F,80,-86,,,,,,
c1ccncc1,115,-41.6,-4.96,1.6,1.32,readily biodegradable,,
CCCC(CC)CC,119,,,,1.3,,,0.602
CC(=O)OCOc1ccccc1C(N)=O,,92.5,,,,,,
CC(=O)c1ccc(Cl)c(Cl)c1,,76,,,,,,
N#Cc1c[nH]cc1-c1cccc2c1OC(F)(F)O2,,200,,,-8.53,,,
CCNc1ccccc1C,216,,,,,,,

SMILES,boiling point [°C],melting point [°C],log10 Henry constant (atm·m³/mol),log10 Koc (L/kg),log10 vapour pressure (mmHg),ready biodegradability,log10 Koa,log10 biodegradation half-life (days)
CC(=O)c1ccc(C)cc1O,245,21,,,,,,
N#CC(O)C(Cl)(Cl)Cl (stereo not given),,61,,,,,,
COC(=O)c1cc(Oc2ccc(C(F)(F)F)cc2Cl)ccc1[N+](=O)[O-],,,,,-7.12,,,
Oc1cccc(Br)c1,236,33,,,,not readily biodegradable,,
CNC[C@H](O)c1ccccc1,,44,,,,,,
Fc1ccc(Br)cc1Br,,69,,,,,,
CC(C)NCC(O)c1cc(O)cc(O)c1 (stereo not given),,100,,,,,,
CC1(c2ccc(Oc3ccccc3)cc2)OC(=O)N(Nc2ccccc2)C1=O (stereo not given),,141,,,-8.32,,,
CCC(C)(O)CCCC(C)C (stereo not given),196,31.5,,,,,,
NN1C(=O)CSC1=S,,102,,,,,,
C=CC1(C)OC(=O)N(c2cc(Cl)cc(Cl)c2)C1=O (stereo not given),,108,,2.7,-6.92,,,
Cc1cccc(C(=O)Cl)c1,220,-23,,,,,,
CCCCCCCCCCCCO,259,24,-4.65,3.52,-3.07,readily biodegradable,,
CCCCCCCCCCCCCCI,,,,,-3.85,,,
COc1cc(C)c(/C=C/C(C)=C/C=C/C(C)=C/C(=O)O)c(C)c1C,,229,,,,,,
CCCCC(Cl)CC (stereo not given),144,,,,,,,
O=C1OC(=O)C2CC=CCC12 (stereo not given),,,,,,not readily biodegradable,,
CC(C)(N)c1ccccc1,196,,,,,,,
NC(=O)Nc1ccccc1,238,147,,1.35,,not readily biodegradable,,
CCCCOC(=O)C(C)O (stereo not given),186,-28,,,-0.398,,,
CCc1nccnc1CC,181,,,,,,,
O=C(O)/C(F)=C/c1ccccc1,290,158,,,,,,
Oc1cccc2sccc12,,79.8,,,,,,

# Same assay, conditions: fish
SMILES,log10 BCF,log10 biotransformation half-life (days)
O=C(O)C(Cl)(Cl)Cl,0.23,
Clc1cc(Cl)cc(Cl)c1,2.97,1.19
ClC1=C(Cl)[C@]2(Cl)[C@H]3[C@H]([C@@H]4C=C[C@H]3C4)[C@@]1(Cl)C2(Cl)Cl (racemic),3.74,1.37
Brc1ccccc1,1.36,-1.19
CCc1ccc(CC)cc1,2.68,-0.01
Oc1cccc(Br)c1,1.18,-0.95
Clc1ccc(Oc2c(Cl)cc(Cl)c(Cl)c2Cl)c(Cl)c1,,2.76
